Molecular target: BTK (Homo sapiens (Human), UniProt Q06187)
Experiment: BTK enzymatic activity assay (Caliper-based kinase assay)
Assay type: biochemical
Conditions: human recombinant BTK 0.5 nM, ATP 16 μM, 3 h room temperature
Protocol: A Caliper-based kinase assay (Caliper Life Sciences, Hopkinton, Mass.) was used to measure inhibition of BTK kinase activity of a compound of the present disclosure. […] The reaction was then terminated with EDTA, final concentration 20 mM and the phosphorylated reaction product was quantified on a Caliper Desktop Profiler (Caliper LabChip 3000). […] This value is presented as the IC50.

Chain of BTK (Q06187 whole entry): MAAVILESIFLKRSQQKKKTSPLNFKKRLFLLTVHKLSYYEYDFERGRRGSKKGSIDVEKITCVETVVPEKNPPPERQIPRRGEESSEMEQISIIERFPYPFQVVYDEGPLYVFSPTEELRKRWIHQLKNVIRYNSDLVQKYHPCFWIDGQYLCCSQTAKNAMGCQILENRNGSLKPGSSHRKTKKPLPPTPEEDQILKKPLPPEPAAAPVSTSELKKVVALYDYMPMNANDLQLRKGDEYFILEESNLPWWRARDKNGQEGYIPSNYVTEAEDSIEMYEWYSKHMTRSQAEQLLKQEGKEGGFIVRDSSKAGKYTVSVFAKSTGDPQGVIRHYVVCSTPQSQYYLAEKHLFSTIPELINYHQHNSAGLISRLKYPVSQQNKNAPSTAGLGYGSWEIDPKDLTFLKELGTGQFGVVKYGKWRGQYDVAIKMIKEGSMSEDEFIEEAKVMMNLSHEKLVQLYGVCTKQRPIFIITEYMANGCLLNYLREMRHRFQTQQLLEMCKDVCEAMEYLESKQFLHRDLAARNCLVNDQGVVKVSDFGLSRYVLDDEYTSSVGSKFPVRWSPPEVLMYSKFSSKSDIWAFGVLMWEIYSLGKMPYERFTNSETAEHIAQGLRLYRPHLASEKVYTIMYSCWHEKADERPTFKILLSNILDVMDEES

CN1CCN(c2cccc(C(C)(C)C=C(C#N)C(=O)N3CCC[C@@H](n4c(=O)n(-c5ccc(Oc6ccccc6)cc5)c5c(N)nccc54)C3)n2)CC1 [Compound 54, (R)-2-(3-(4-amino-2-oxo-3-(4-phenoxyphenyl)-2,3-dihydro-1H-imidazo[4,5-c]pyridin-1-yl)piperidine-1-carbonyl)-4-methyl-4-(6-(4-methylpiperazin-1-yl)pyridin-2-yl)pent-2-enenitrile] was tested. Which IC50 did it give?
The IC50 was 17.8 nM.

Which IC50 does the source give for CN1CCN(C(C)(C)C=C(C#N)C(=O)N2CCC[C@H]2Cn2c(=O)n(-c3ccc(Oc4ccccc4)cc3)c3c(N)nccc32)CC1 [Compound 34, (S)-2-(2-((4-amino-2-oxo-3-(4-phenoxyphenyl)-2,3-dihydro-1H-imidazo[4,5-c]pyridin-1-yl)methyl)pyrrolidine-1-carbonyl)-4-methyl-4-(4-methylpiperazin-1-yl)pent-2-enenitrile] here?
Its IC50 is 23.1 nM.

N#CC(=CC1CC1(F)F)C(=O)N1CCC[C@@H](n2c(=O)n(-c3ccc(Oc4ccccc4)cc3)c3c(N)nccc32)C1 (stereo partly drawn) [Compound 52, (R)-2-(3-(4-amino-2-oxo-3-(4-phenoxyphenyl)-2,3-dihydro-1H-imidazo[4,5-c]pyridin-1-yl)piperidine-1-carbonyl)-3-(2,2-difluorocyclopropyl)acrylonitrile] was tested. Which IC50 did it give?
The IC50 was 12 nM.

With CC(C)(C=C(C#N)C(=O)N1CCC[C@@H](n2c(=O)n(-c3ccc(Oc4c(F)cccc4F)cc3)c3c(N)nccc32)C1)N1CCN(C2COC2)CC1 [Compound 24, (R)-2-(3-(4-amino-3-(4-(2,6-difluorophenoxy)phenyl)-2-oxo-2,3-dihydro-1H-imidazo[4,5-c]pyridin-1-yl)piperidine-1-carbonyl)-4-methyl-4-(4-(oxetan-3-yl)piperazin-1-yl)pent-2-enenitrile] as the molecule, how does the IC50 read?
Its IC50 is 4.7 nM.

How did the IC50 turn out when N#CC(=CC1CC[S+]([O-])CC1)C(=O)N1CCC[C@@H](n2c(=O)n(-c3ccc(Oc4ccccc4)cc3)c3c(N)nccc32)C1 (stereo partly drawn) [Compound 39, (R)-2-(3-(4-amino-2-oxo-3-(4-phenoxyphenyl)-2,3-dihydro-1H-imidazo[4,5-c]pyridin-1-yl)piperidine-1-carbonyl)-3-(1-oxidotetrahydro-2H-thiopyran-4-yl)acrylonitrile] was run?
Its IC50 is 5.3 nM.

Which IC50 does the source give for CN1CCN(C(C)(C)C=C(C#N)C(=O)N2CCC[C@H]2Cn2c(=O)n(-c3ccc(Oc4ccccc4)cc3)c3c(N)nccc32)CC1=O [Compound 35, (S)-2-(2-((4-amino-2-oxo-3-(4-phenoxyphenyl)-2,3-dihydro-1H-imidazo[4,5-c]pyridin-1-yl)methyl)pyrrolidine-1-carbonyl)-4-methyl-4-(4-methyl-3-oxopiperazin-1-yl)pent-2-enenitrile] here?
The IC50 was 26.2 nM.

How did the IC50 turn out when N#CC(=CC(CCO)CCO)C(=O)N1CCC[C@@H](n2c(=O)n(-c3ccc(Oc4ccccc4)cc3)c3c(N)nccc32)C1 [Compound 11, (R)-2-(3-(4-amino-2-oxo-3-(4-phenoxyphenyl)-2,3-dihydro-1H-imidazo[4,5-c]pyridin-1-yl)piperidine-1-carbonyl)-6-hydroxy-4-(2-hydroxyethyl)hex-2-enenitrile] was run?
The IC50 was 78.6 nM.

With C=CC(=O)N1CCC[C@H]1Cn1c(=O)n(-c2ccc(Oc3ccccc3)cc2)c2c(N)nccc21 [Compound 22, (S)-1-((1-acryloylpyrrolidin-2-yl)methyl)-4-amino-3-(4-phenoxyphenyl)-1H-imidazo[4,5-c]pyridin-2(3H)-one] as the molecule, how does the IC50 read?
The IC50 was 4.8 nM.

With COCC1(C=C(C#N)C(=O)N2CCC[C@@H](n3c(=O)n(-c4ccc(Oc5ccccc5)cc4)c4c(N)nccc43)C2)CCOCC1 [Compound 66, (R)-2-(3-(4-amino-2-oxo-3-(4-phenoxyphenyl)-2,3-dihydro-1H-imidazo[4,5-c]pyridin-1-yl)piperidine-1-carbonyl)-3-(4-(methoxymethyl)tetrahydro-2H-pyran-4-yl)acrylonitrile] as the molecule, how does the IC50 read?
Its IC50 is 2 nM.

With COC[C@@H]1CCCN1C(C)(C)C=C(C#N)C(=O)N1CCC[C@@H](n2c(=O)n(-c3ccc(Oc4ccccc4)cc3)c3c(N)nccc32)C1 [Compound 63, 2-((R)-3-(4-amino-2-oxo-3-(4-phenoxyphenyl)-2,3-dihydro-1H-imidazo[4,5-c]pyridin-1-yl)piperidine-1-carbonyl)-4-((S)-2-(methoxymethyl)pyrrolidin-1-yl)-4-methylpent-2-enenitrile] as the molecule, how does the IC50 read?
Its IC50 is 1.4 nM.

How did the IC50 turn out when CN(C)C(=O)C(C)(C)C=C(C#N)C(=O)N1CCC[C@@H](n2c(=O)n(-c3ccc(Oc4ccccc4)cc3)c3c(N)nccc32)C1 [Compound 50, (R)-5-(3-(4-amino-2-oxo-3-(4-phenoxyphenyl)-2,3-dihydro-1H-imidazo[4,5-c]pyridin-1-yl)piperidin-1-yl)-4-cyano-N,N,2,2-tetramethyl-5-oxopent-3-enamide] was run?
The IC50 was 8.3 nM.

How did the IC50 turn out when CC(C)(C=C(C#N)C(=O)N1CCC[C@@H](n2c(=O)n(-c3ccc(Oc4ccccc4)cc3F)c3c(N)nccc32)C1)N1CCN(C2COC2)CC1 [Compound 27, (R)-2-(3-(4-amino-3-(2-fluoro-4-phenoxyphenyl)-2-oxo-2,3-dihydro-1H-imidazo[4,5-c]pyridin-1-yl)piperidine-1-carbonyl)-4-methyl-4-(4-(oxetan-3-yl)piperazin-1-yl)pent-2-enenitrile] was run?
Its IC50 is 4.9 nM.

Which IC50 does the source give for CC(C)(C=C(C#N)C(=O)N1CCC[C@@H](n2c(=O)n(-c3ccc(Oc4ccccc4)cc3)c3c(N)nccc32)C1)N1CCn2cnnc2C1 [Compound 29, (R)-2-(3-(4-amino-2-oxo-3-(4-phenoxyphenyl)-2,3-dihydro-1H-imidazo[4,5-c]pyridin-1-yl)piperidine-1-carbonyl)-4-(5,6-dihydro-[1,2,4]triazolo[4,3-a]pyrazin-7(8H)-yl)-4-methylpent-2-enenitrile] here?
The IC50 was 1.8 nM.

With CC1(C=C(C#N)C(=O)N2CCC[C@@H](n3c(=O)n(-c4ccc(Oc5ccccc5)cc4)c4c(N)ncnc43)C2)CCN(C2COC2)CC1 [Compound 32, (R)-2-(3-(6-amino-8-oxo-7-(4-phenoxyphenyl)-7H-purin-9(8H)-yl)piperidine-1-carbonyl)-3-(4-methyl-1-(oxetan-3-yl)piperidin-4-yl)acrylonitrile] as the molecule, how does the IC50 read?
Its IC50 is 2.9 nM.

How did the IC50 turn out when CO[C@@H]1CCN(C(C)(C)C=C(C#N)C(=O)N2CCC[C@@H](n3c(=O)n(-c4ccc(Oc5ccccc5)cc4)c4c(N)nccc43)C2)C1 [Compound 60, 2-((R)-3-(4-amino-2-oxo-3-(4-phenoxyphenyl)-2,3-dihydro-1H-imidazo[4,5-c]pyridin-1-yl)piperidine-1-carbonyl)-4-((R)-3-methoxypyrrolidin-1-yl)-4-methylpent-2-enenitrile] was run?
Its IC50 is 2.4 nM.

Which IC50 does the source give for CC(C)(C)OC(=O)N1CCN(C(C)(C)C=C(C#N)C(=O)N2CCC[C@@H](n3c(=O)n(-c4ccc(Oc5ccccc5)cc4)c4c(N)nccc43)C2)CC1 [Compound 43, (R)-tert-butyl 4-(5-(3-(4-amino-2-oxo-3-(4-phenoxyphenyl)-2,3-dihydro-1H-imidazo[4,5-c]pyridin-1-yl)piperidin-1-yl)-4-cyano-2-methyl-5-oxopent-3-en-2-yl)piperazine-1-carboxylate] here?
The IC50 was 22.5 nM.

With CO[C@H]1CCN(C(C)(C)C=C(C#N)C(=O)N2CCC[C@@H](n3c(=O)n(-c4ccc(Oc5ccccc5)cc4)c4c(N)nccc43)C2)C1 [Compound 59, 2-((R)-3-(4-amino-2-oxo-3-(4-phenoxyphenyl)-2,3-dihydro-1H-imidazo[4,5-c]pyridin-1-yl)piperidine-1-carbonyl)-4-((S)-3-methoxypyrrolidin-1-yl)-4-methylpent-2-enenitrile] as the molecule, how does the IC50 read?
The IC50 was 2.6 nM.

CC(C)(C=C(C#N)C(=O)N1CCC[C@@H](n2c(=O)n(-c3ccc(Oc4ccccc4)cc3)c3c(N)nccc32)C1)N1CCC(F)(F)C1 [Compound 58, (R)-2-(3-(4-amino-2-oxo-3-(4-phenoxyphenyl)-2,3-dihydro-1H-imidazo[4,5-c]pyridin-1-yl)piperidine-1-carbonyl)-4-(3,3-difluoropyrrolidin-1-yl)-4-methylpent-2-enenitrile] was tested. Which IC50 did it give?
Its IC50 is 4.2 nM.

CCC1(C=C(C#N)C(=O)N2CCC[C@@H](n3c(=O)n(-c4ccc(Oc5ccccc5)cc4)c4c(N)nccc43)C2)CCOCC1 [Compound 65, (R)-2-(3-(4-amino-2-oxo-3-(4-phenoxyphenyl)-2,3-dihydro-1H-imidazo[4,5-c]pyridin-1-yl)piperidine-1-carbonyl)-3-(4-ethyltetrahydro-2H-pyran-4-yl)acrylonitrile] was tested. Which IC50 did it give?
Its IC50 is 2.4 nM.

With CC(C)(C=C(C#N)C(=O)N1CCC[C@@H](n2c(=O)n(-c3ccc(Oc4ccccc4F)cc3)c3c(N)nccc32)C1)N1CCN(C2COC2)CC1 [Compound 38, (R)-2-(3-(4-amino-3-(4-(2-fluorophenoxy)phenyl)-2-oxo-2,3-dihydro-1H-imidazo[4,5-c]pyridin-1-yl)piperidine-1-carbonyl)-4-methyl-4-(4-(oxetan-3-yl)piperazin-1-yl)pent-2-enenitrile] as the molecule, how does the IC50 read?
Its IC50 is 5.7 nM.

CC(C)(C=C(C#N)C(=O)N1CCC[C@@H](n2c(=O)n(-c3ccc(Oc4ccccc4)cc3)c3c(N)nccc32)C1)N1CCN(C2(C)COC2)CC1 [Compound 30, (R)-2-(3-(4-amino-2-oxo-3-(4-phenoxyphenyl)-2,3-dihydro-1H-imidazo[4,5-c]pyridin-1-yl)piperidine-1-carbonyl)-4-methyl-4-(4-(3-methyloxetan-3-yl)piperazin-1-yl)pent-2-enenitrile] was tested. Which IC50 did it give?
Its IC50 is 1.5 nM.

How did the IC50 turn out when N#CC(=CC1[C@H]2COC[C@@H]12)C(=O)N1CCC[C@@H](n2c(=O)n(-c3ccc(Oc4ccccc4)cc3)c3c(N)nccc32)C1 (stereo partly drawn) [Compound 53, 2-((R)-3-(4-amino-2-oxo-3-(4-phenoxyphenyl)-2,3-dihydro-1H-imidazo[4,5-c]pyridin-1-yl)piperidine-1-carbonyl)-3-((1R,5S)-3-oxabicyclo[3.1.0]hexan-6-yl)acrylonitrile] was run?
Its IC50 is 4.2 nM.

With N#CC(=CC1(c2ccccc2)CC1)C(=O)N1CCC[C@@H](n2c(=O)n(-c3ccc(Oc4ccccc4)cc3)c3c(N)nccc32)C1 [Compound 46, (R)-2-(3-(4-amino-2-oxo-3-(4-phenoxyphenyl)-2,3-dihydro-1H-imidazo[4,5-c]pyridin-1-yl)piperidine-1-carbonyl)-3-(1-phenylcyclopropyl)acrylonitrile] as the molecule, how does the IC50 read?
The IC50 was 13.1 nM.

Reference: patent publication US9688676B2, “Tyrosine kinase inhibitors” (PRINCIPIA BIOPHARMA INC., priority 2015, dated 2017)
